In a melting point compilation (Tetko et al.; mined from patent text by program, amines drawn as free bases though some values may be those of a salt) one finds melting point data, which are given here for 92 compounds.

In general, melting point refers to the temperature of the solid-liquid transition.

In the case of `CN(C(=O)CNC(=O)OC(C)(C)C)c1ccc(OCC(=O)O)cc1`, the melting point lay in the range of 146 to 155 °C.

In turn, `CC(C)(C)OC(=O)C(C(=O)O)c1cccc(N)c1` (configuration not stated) returned a melting point of 105 °C.

`CN1CCC(O)(c2ccccc2CO)CC1` had a melting point of 118 to 119 °C.

With `Cc1ccc(Cc2cnc(NCCNc3ncc(Cl)cc3C)[nH]c2=O)cn1`, the melting point was 112 to 115 °C.

The compound `COCCNc1cc(-c2c(-c3cccc(C)c3)nc3cccnn23)ccn1` registered a melting point of 99 to 100 °C.

Regarding `O=C(Cl)c1cc(Br)c(C(=O)Cl)cc1Br`, the melting point fell in the range of 80 to 82 °C.

In turn, `Nc1nc(=O)c2ccccc2n1Cc1ccc(F)cc1` yielded a melting point of 170 °C.

Consider `O=C(O)c1cc2c(s1)-c1ccccc1OC2C1=CCCC=C1` (configuration not stated), for which the melting point fell in the range of 258 to 260 °C.

On to `COc1ccc2c(c1)C(C)(N1C(=O)c3ccccc3C1=O)C(=O)N2c1ccc(F)cc1` (configuration not stated), for which the melting point was 207 to 208 °C.

As for `CC1(C)CC(N2CCCC2)c2sccc2O1` (configuration not stated), the melting point lay in the range of 49 to 50 °C.

For the compound `CCCC(O)c1ccc(Cl)c2nc3n(c12)CCCN3c1ccc(Cl)cc1Cl` (configuration not stated), the melting point fell in the range of 220 to 221 °C.

Compound `CC(C)(C)C(=O)Nc1nc(Nc2cccc(Br)c2)c2c(n1)[nH]c1ccccc12` displayed a melting point of 287 to 288 °C.

On to `O=C1C=CC2=CN=C(C3CCCCC3)N3CCC(=C23)N1`, for which the melting point was 265 to 266 °C.

In turn, `O=C(O)C1CCCCc2c(-c3ccc(Cl)cc3)noc2C1` (configuration not stated) had a melting point of 215 °C.

Turning to `CCCCc1oc2ccccc2c1C(=O)Nc1ccc2cc(OCC#N)ccc2c1`, the melting point is 122 to 124 °C.

In turn, `COCc1cc2c(nc(C)n2C)c(O)c1CCC(=O)c1ccccc1C` had a melting point of 163 °C.

In turn, `O=C(Oc1ccccc1)N1CCc2[nH]c3c(cnc4cc(Cl)ccc43)c2C1` yielded a melting point greater than 250 °C.

Compound `NC(=S)c1nccc(F)c1Cn1ccnc1` had a melting point of 154 to 156 °C.

Compound `COc1cc2c(cc1OC)C(=O)C(=Cc1cc(Cl)cc(Cl)c1)C2` registered a melting point of 227 °C.

In the case of `N#CC(NC(=O)c1cccc(Cl)c1)n1ccnn1` (configuration not stated), the melting point lay in the range of 157 to 159 °C.

In turn, `Cc1ccsc1C=C1C(=O)COC1=O` displayed a melting point of 164 to 166 °C.

Regarding `CN1C(=O)CN=C(c2ccccc2F)c2cc(NC(=O)NC(C)(C)C)ccc21`, the melting point was found to be 210 °C.

In turn, `CCCCC(C)(C)C(NC(=O)c1ccc(Cl)cc1)NC(=NC#N)Nc1cccnc1` (configuration not stated) displayed a melting point of 168 to 170 °C.

`Cc1ccc(-c2ccc(OC3SCC(O)C(O)C3O)cn2)o1` (configuration not stated) displayed a melting point of 168 °C.

With `Cc1ccsc1C(=O)NP(N)(N)=O`, the melting point lay within 267 to 275 °C.

`C#CCn1c(I)cc(C(O)C(C)(C)C)c(C)c1=O` (configuration not stated) showed a melting point of 105 to 106 °C.

`CN1C(=O)CCC2c3ccc(Cl)cc3CCC21` (configuration not stated) registered a melting point of 82 °C.

`C=CCc1cccc2c(=O)cc(-c3ccccc3F)oc12` yielded a melting point of 78 to 81 °C.

For the compound `N#CC(C#N)=C1N(CCCN2CCCCC2)CCN1CCN1CCc2ccccc2C1`, the melting point was in the range of 101 to 102 °C.

The compound `CC(=O)Oc1cc(OC(C)=O)cc(C(=O)CBr)c1` had a melting point of 61 to 62 °C.

`CC(NC(=O)Nc1cc(Cl)ccc1CCc1cc(C(C)(C)C)c(O)c(C(C)(C)C)c1)c1ccccc1` (configuration not stated) yielded a melting point of 167 to 168 °C.

As for `CCc1c(C(=O)C(N)=O)c2c(OCC(=O)O)cc3c(c2n1Cc1ccccc1)CCCC3`, the melting point is 222 to 225 °C.

Compound `COc1c(N)ccc2c1C(CCNC(C)=O)CC2` (configuration not stated) showed a melting point of 130 to 132 °C.

In the case of `COc1cccc(C(=O)O)c1OC(C)=O`, the melting point was in the range of 139 to 140 °C.

On to `CC(=CCO)c1ccc(-c2ccccc2)cc1`, for which the melting point was in the range of 112 to 114 °C.

The compound `Cc1[nH]c(=O)ccc1-c1ccc(O)c(N)c1` came in with a melting point of 279 to 283 °C.

The compound `COC(=O)CCN(C(=O)CC(O)C(=O)O)N1CCCCC1` (configuration not stated) registered a melting point of 54 to 57 °C.

The compound `COc1cc(NS(=O)(=O)c2cccc(C(F)(F)F)c2)cc(OC)c1` gave a melting point of 78 to 81 °C.

Turning to `OC1CSC(Oc2ccc(-c3cncnc3)cc2)C(O)C1O` (configuration not stated), the melting point is 196 to 200 °C.

`CSc1ccc(-c2cn3c(c2-c2ccccc2)CCC3)cc1` registered a melting point of 112 °C.

`CC(C)(C)OC(=O)CON1C(=O)c2ccccc2C1=O` came in with a melting point of 140 to 141 °C.

`COc1ccc(S(=O)(=O)N2c3ccc(Cl)cc3C(O)(c3ccccc3Cl)C2C(=O)N2CCN(C)CC2)cc1OC` (configuration not stated) came in with a melting point of 120 °C.

`C/C(=N\OC(=O)c1ccc(CNC(=O)OC(C)(C)C)cc1)[C@H]1CC[C@H]2[C@@H]3CCC4=CC(=O)CC[C@]4(C)[C@H]3CC[C@]12C` showed a melting point of 166 to 168 °C.

`CC1=NN(C)C(=O)C1=Cc1ccc(Cl)cc1Cl` gave a melting point of 128 °C.

For the compound `CCOC(=O)c1ncc2[nH]c3ccc(I)cc3c2c1COC`, the melting point fell in the range of 204 to 206 °C.

With `CCCCCn1cc(CCCC)n(Cc2ccc(-c3ccccc3-c3nnn[nH]3)nc2)c1=O`, the melting point was 162 to 164 °C.

Take `CC(=O)c1cc2c(Cl)cccc2s1`: the melting point lay in the range of 113 to 115 °C.

`O=C1c2ccccc2C(O)(c2ccc(F)cc2)C2=NCCCN12` (configuration not stated) showed a melting point of 126 to 128 °C.

In turn, `CC(C)(C)OC(=O)NCc1cc(-c2cccnc2)n[nH]1` had a melting point of 185 to 187 °C.

Compound `COc1cc2cc(CO)nc(-c3ccc([N+](=O)[O-])cc3)c2cc1OC` registered a melting point of 260 to 263 °C.

`O=S(=O)(NCc1ccnc2ccccc12)c1ccc(-c2cc(Cl)ccc2Cl)cc1` showed a melting point of 124 °C.

With `CC(C)(C)OC(=O)N1CCn2c(c(C(N)=S)c(Cl)c2-c2cccnc2)C1`, the melting point was in the range of 220 to 221 °C.

The compound `N#CC(=NOCCn1cncn1)C(N)=O` returned a melting point of 137 °C.

In turn, `O=c1[nH]nc(Cl)cc1Br` gave a melting point of 205 to 206 °C.

In turn, `CN1C(=O)C2(COc3cc4c(cc32)OCCO4)c2ccccc21` (configuration not stated) came in with a melting point of 152 to 154 °C.

On to `CC(C)c1nn(-c2ccccc2)c(-c2ccc(F)cc2)c1CC[C@H]1C[C@H](O)CC(=O)O1` (relative stereo), for which the melting point was 157 to 159 °C.

Take `O=C1CCCCCC1C(c1ccc(Cl)cc1)[N+](=O)[O-]` (racemic): the melting point was 77 to 78 °C.

In turn, `N#Cc1cnn2c1N(C(=O)CN1CCN(Cc3ccccc3F)CC1)CC=C2c1cccc(C(F)(F)F)c1` showed a melting point of 188 to 190 °C.

Compound `Cc1cccc2c1nc(-c1ccccc1[N+](=O)[O-])n2CC(O)C(C)(C)C` (configuration not stated) gave a melting point of 204 °C.

The compound `C=C(C)C#Cc1ccc2c(c1)NC(=O)CC(c1cccc(C#N)c1)=N2` yielded a melting point of 231 °C.

As to `O=c1nc(N2CCc3ccccc3C2)sc2ncccc12`, the melting point fell in the range of 159 to 160 °C.

Take `Cc1oc(-c2ccccc2)nc1Cc1cc2cc(N)ccc2o1`: the melting point amounted to 162 °C.

`COc1cc2nc(S(=O)(=O)Nc3c(OC)ccnc3Cl)nn2c(OC)n1`: the melting point lay within 197 to 199 °C.

`COC(=O)[C@H](COC(C)(C)C)NC(=O)[C@@H](NC(=O)[C@H](Cc1ccccc1)NC(=O)[C@@H](NC(=O)OCc1ccccc1)[C@@H](C)OC(C)(C)C)[C@@H](C)OC(C)(C)C` yielded a melting point of 114 to 115 °C.

Turning to `CCC1c2cccn2-c2ccc(F)cc2N1S(=O)(=O)c1ccc(O)c(Cl)c1` (configuration not stated), the melting point is 180 to 184 °C.

Compound `CNC(=O)Nc1cc(C(C)(C)C)c2c(c1)C(C)(C)CO2` showed a melting point of 193 to 194 °C.

The compound `CC(C)(C)S(=O)(=O)c1ccccc1NC(=O)N[C@@H](Cc1ccc(NC(=O)c2c(Cl)cncc2Cl)cc1)C(=O)O` showed a melting point of 228 °C.

On to `COCCOc1ccc(-c2cncc(C#N)c2Nc2ccc3[nH]ccc3c2C)cc1OC`, for which the melting point is 208 to 210 °C.

As to `Cc1cc(=O)oc2cc(N(C)C(=O)C(=O)O)ccc12`, the melting point is 162 to 164 °C.

Take `O=c1cc(Cl)c2nc3ccc(F)cc3sc-2c1Cl`: the melting point was in the range of 245 to 247 °C.

Turning to `Cc1cc(C(C)N(O)C(=O)NCCO)c(C)s1` (configuration not stated), the melting point fell in the range of 122 to 124 °C.

The compound `O=C(O)C(=O)N1CCC(Oc2ccccc2)CC1` returned a melting point of 109 to 112 °C.

In turn, `CCNc1cc(Nc2ccc(OC)cc2)ncn1` displayed a melting point of 190 to 193 °C.

Consider `N#Cc1ccc(CCCCCC(=O)O)cc1`, for which the melting point was in the range of 61 to 62 °C.

On to `N#CCc1cc2ccccc2s1`, for which the melting point was in the range of 59 to 61 °C.

Consider `COC(=O)c1c(Cc2ccc(S(=O)(=O)NCCO)cc2)c(=O)c2ccc(Cl)cc2n1-c1ccccc1`, for which the melting point is 192 to 193 °C.

`CCOC(=O)c1ccc(CC(C)NCC(O)c2ccc(O)c(CO)c2)cc1` (configuration not stated): the melting point fell in the range of 92 to 96 °C.

Regarding `CCCC1=C(C#N)C(c2cccc(C#N)c2Cl)c2c[nH]nc2N1` (configuration not stated), the melting point is greater than 250 °C.

Consider `CC(=O)c1cn(C)cc(-c2cccc(C(F)(F)F)c2)c1=O`, for which the melting point lay within 130 to 131 °C.

On to `Cc1c(C)c2c(c(C)c1N)CC(C)(CN1CCOCC1)O2` (configuration not stated), for which the melting point lay within 114 to 115 °C.

`Cc1ccc(S(=O)(=O)N=CNCc2ccc(-c3csc(N=C(N)N)n3)o2)cc1` displayed a melting point of 141 to 142 °C.

The compound `COC1(Cl)C=C(F)C=C(C=O)C1` (configuration not stated) returned a melting point of 59 to 61 °C.

In the case of `O=C1NCCNc2c1sc1ccccc21`, the melting point fell in the range of 210 to 212 °C.

In the case of `C=CNC(=O)n1sc(OCC)nc1=O`, the melting point was found to be 123 °C.

`O=Cc1cc(Br)cnc1N1CCC(CO)C1` (configuration not stated) came in with a melting point of 84 to 85.5 °C.

`CCCc1cc(CCC)c2oc(C(=O)c3ccc(OC)cc3)c(C)c2c1O` yielded a melting point of 119 to 121 °C.

As for `COc1cc(CO)ccc1OCc1nc(N2CCCCC2)sc1C`, the melting point was in the range of 92 to 93 °C.

In turn, `CN1CC=C(CC(=O)N2c3ccccc3NC(=O)c3ccccc32)CC1` came in with a melting point of 200 to 201 °C.

On to `CCOC(=O)c1c(C)cc2nc(CO)n(-c3ccccc3C)c(=O)c2c1C`, for which the melting point was in the range of 130 to 132 °C.

Consider `Cc1ccc(-c2ccc(CO)cc2)cc1`, for which the melting point fell in the range of 128 to 131 °C.

Consider `Cc1nc(N)c2nc3n(c2c1C)C(C)COC3` (configuration not stated), for which the melting point lay within 264 to 267 °C.

The compound `Cc1cc(C(C)(C)C)c(OP2OP(Oc3c(C(C)(C)C)cc(C)cc3C(C)(C)C)OP(Oc3c(C(C)(C)C)cc(C)cc3C(C)(C)C)O2)c(C(C)(C)C)c1` (configuration not stated) showed a melting point of 176 to 181 °C.
